We go through nine molecules from patent US12371454B2, “Cyclic peptide compound having Kras inhibitory action” (priority 2019, dated 2025).

Starred links: 1 amine or outer side, 2 acyl side, 3 side chain; linkers in the order of their positions; H or OH if unused. Positions of bridges follow the written chain, without caps; N, C: chain ends. Non-standard residues stand in square brackets, D forms with d. Residues, ends and D or L forms follow the SMILES beside them. *: point of attachment. hPhe(3,5-F2-4-CF3) = N[C@@H](CCc1cc(F)c(C(F)(F)F)c(F)c1)C(=O)O; hPhe(3-Cl-4-CF3) = N[C@@H](CCc1ccc(C(F)(F)F)c(Cl)c1)C(=O)O; hPhe(3-F,4-CF3) = N[C@@H](CCc1ccc(C(F)(F)F)c(F)c1)C(=O)O; NMePhe(4-CF3) = CN[C@@H](Cc1ccc(C(F)(F)F)cc1)C(=O)O; hPhe(4-CF3) = N[C@@H](CCc1ccc(C(F)(F)F)cc1)C(=O)O; NMePhe(4-Cl) = CN[C@@H](Cc1ccc(Cl)cc1)C(=O)O; X35 = CN([C@@](C)(Cc1ccccc1)C(=O)[*:2])[*:1]; NMePhe(4-Me) = CN[C@@H](Cc1ccc(C)cc1)C(=O)O; NMedβ3hAla = C[C@H](CC(=O)[*:2])N(C)[*:1]; NMeGly(cPent) = CN[C@H](C(=O)O)C1CCCC1; Phe(3-I) = N[C@@H](Cc1cccc(I)c1)C(=O)O; Pro(4,4-F2) = O=C(O)[C@@H]1CC(F)(F)CN1; NMeAla(cPr) = CN[C@@H](CC1CC1)C(=O)O; NMeY = CN[C@@H](Cc1ccc(O)cc1)C(=O)O; NMeCha = CN[C@@H](CC1CCCCC1)C(=O)O; NMehLeu = CN[C@@H](CCC(C)C)C(=O)O; Hyp = O=C(O)[C@@H]1C[C@@H](O)CN1; NMeF = CN[C@@H](Cc1ccccc1)C(=O)O; NMeI = CC[C@H](C)[C@H](NC)C(=O)O; NMeD = CN[C@@H](CC(=O)O)C(=O)O; NMeL = CN[C@@H](CC(C)C)C(=O)O; NMeV = CN[C@H](C(=O)O)C(C)C; d(β3hA) = C[C@@H](N)CC(=O)O; Morpholide = C1CN(*)CCO1; NMeA = CN[C@@H](C)C(=O)O; Nle = CCCC[C@H](N)C(=O)O; Piperidide = C1CCN(*)CC1; Ac5c = NC1(C(=O)O)CCCC1; Aze = O=C(O)[C@@H]1CCN1; Sar = CNCC(=O)O

For this test, the target named is T1, Kras and SOS1 (biotin-tagged human Kras loaded with GDP, His-tagged human SOS1) (Homo sapiens, UniProt P01116, G12D).
T1 construct: made in house; host or cells: E. coli (stated for Kras only)
T1 sequence (P01116 1-188 isoform P01116-2 G12D): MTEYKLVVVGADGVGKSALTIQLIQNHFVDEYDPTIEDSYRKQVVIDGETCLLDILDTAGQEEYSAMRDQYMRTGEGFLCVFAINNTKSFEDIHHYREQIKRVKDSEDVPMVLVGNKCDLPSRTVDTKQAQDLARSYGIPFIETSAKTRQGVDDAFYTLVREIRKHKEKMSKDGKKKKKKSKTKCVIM
The test can be described thus: Protein-protein interaction inhibition between Kras and SOS1 (KrasGl2D-SOS PPI) using AlphaScreen. Format: binding. Particulars: AlphaScreen; biotin-tagged human Kras loaded with GDP, His-tagged human SOS1; read-out: KRAS G12D-SOS PPI IC50. In outline: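 Donor beads (nickel) hold His-SOS1; acceptor beads (streptavidin) hold biotin-Kras bound to GDP. Signal measured at 520-620 nm following 680 nm excitation.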
The IC50 is the point on the concentration scale where inhibition reaches its midpoint. As to `CCO[C@@H]1C[C@H]2C(=O)NC3(CCCC3)C(=O)N(C)[C@@H]([C@@H](C)CC)C(=O)N(C)[C@H](C(=O)N3CCOCC3)CC(=O)N(C)[C@@H](CC(C)C)C(=O)N[C@@H]([C@@H](C)CC)C(=O)N(C)[C@@H](C)C(=O)N3CC[C@H]3C(=O)N(C)[C@@H](Cc3ccc(C(F)(F)F)cc3)C(=O)N(C)CC(=O)N[C@@H](CCc3cc(F)c(C(F)(F)F)c(F)c3)C(=O)N2C1` [Compound 1261] ([NMeL]I[NMeA][Aze][NMePhe(4-CF3)][Sar][hPhe(3,5-F2-4-CF3)][Hyp](Et)[Ac5c][NMeI][NMeD]-Morpholide; lactam N-11), the IC50 was found to be 0.65 nM.
The value for `CC[C@H](C)[C@@H]1NC(=O)[C@H](CC(C)C)N(C)C(=O)C[C@@H](C)N(C)C(=O)[C@H](C2CCCC2)N(C)C(=O)C2(CCCC2)NC(=O)[C@@H]2CC(F)(F)CN2C(=O)[C@H](CCc2cc(F)c(C(F)(F)F)c(F)c2)NC(=O)CN(C)C(=O)[C@H](CC2CCCCC2)N(C)C(=O)CN(C)C(=O)CN(C)C1=O` [Compound 198] (cyclo([Ac5c][NMeGly(cPent)][NMedβ3hAla][NMeL]I[Sar][Sar][NMeCha][Sar][hPhe(3,5-F2-4-CF3)][Pro(4,4-F2)])) was 8.5 nM.
Next, `CCCC[C@@H]1NC(=O)[C@H](Cc2cccc(I)c2)NC(=O)CN(C)C(=O)[C@H](Cc2ccc(OC)cc2)N(C)C(=O)CN(C)C(=O)CN(C)C(=O)[C@H]([C@@H](C)CC)NC(=O)[C@H](CC(C)C)N(C)C(=O)C[C@@H](C(=O)N2CCCCC2)N(C)C(=O)[C@H](CC(C)C)NC(=O)[C@](C)(Cc2ccccc2)N(C)C1=O` [Compound 125] ([NMeL]I[Sar][Sar][NMeY](Me)[Sar][Phe(3-I)][Nle][X35]L[NMeD]-Piperidide; lactam N-11): 2.8 nM.
Next, `CC[C@H](C)[C@@H]1NC(=O)[C@H](CC(C)C)N(C)C(=O)C[C@@H](C(=O)N(C)C)N(C)C(=O)[C@H]([C@@H](C)CC)N(C)C(=O)C2(CCCC2)NC(=O)[C@@H]2CCCN2C(=O)[C@H](CCc2ccc(C(F)(F)F)c(Cl)c2)NC(=O)CN(C)C(=O)[C@H](Cc2ccc(C)cc2)N(C)C(=O)CN(C)C(=O)CN(C)C1=O` [Compound 1836] ([NMeL]I[Sar][Sar][NMePhe(4-Me)][Sar][hPhe(3-Cl-4-CF3)]P[Ac5c][NMeI][NMeD]-NMe2; lactam N-11): 0.47 nM.
`CC[C@H](C)[C@@H]1NC(=O)[C@H](C)N(C)C(=O)C[C@@H](C(=O)N2CCCCC2)N(C)C(=O)[C@H](C(C)C)N(C)C(=O)C2(CCCC2)NC(=O)[C@@H]2CCCN2C(=O)[C@H](CCc2ccc(C(F)(F)F)c(F)c2)NC(=O)CN(C)C(=O)[C@H](CC2CCCCC2)N(C)C(=O)CN(C)C(=O)CN(C)C1=O` [Compound 266] ([NMeA]I[Sar][Sar][NMeCha][Sar][hPhe(3-F,4-CF3)]P[Ac5c][NMeV][NMeD]-Piperidide; lactam N-11): the IC50 was 4.6 nM.
Next, `CC[C@H](C)[C@@H]1NC(=O)[C@H](C)N(C)C(=O)C[C@@H](C)NC(=O)[C@H](C(C)C)N(C)C(=O)[C@H](Cc2ccccc2)N(C)C(=O)[C@H](CC(C)C)N(C)C(=O)[C@H](CCc2ccc(C(F)(F)F)c(Cl)c2)NC(=O)CN(C)C(=O)[C@H](Cc2ccc(Cl)cc2)N(C)C(=O)CN(C)C(=O)CN(C)C1=O` [Compound 1079] (cyclo(I[Sar][Sar][NMePhe(4-Cl)][Sar][hPhe(3-Cl-4-CF3)][NMeL][NMeF][NMeV][d(β3hA)][NMeA])): 15 nM; `CC[C@H](C)[C@@H]1NC(=O)[C@H](C)N(C)C(=O)C[C@@H](C(=O)N2CCCCC2)NC(=O)[C@H](C(C)C)N(C)C(=O)[C@H](Cc2ccccc2)N(C)C(=O)[C@H](CC(C)C)N(C)C(=O)[C@H](CCc2ccc(C(F)(F)F)cc2)NC(=O)CN(C)C(=O)[C@H](Cc2ccc(Cl)cc2)N(C)C(=O)CN(C)C(=O)CN(C)C1=O` [Compound 752] ([NMeA]I[Sar][Sar][NMePhe(4-Cl)][Sar][hPhe(4-CF3)][NMeL][NMeF][NMeV]D-Piperidide; lactam N-11): 200 nM.
Regarding `CC[C@H](C)[C@@H]1NC(=O)[C@H](CC(C)C)N(C)C(=O)C[C@@H](C(=O)N2CCCCC2)N(C)C(=O)[C@H](C(C)C)N(C)C(=O)C2(CCCC2)NC(=O)[C@@H]2CCCN2C(=O)[C@H](CCc2ccc(C(F)(F)F)c(Cl)c2)NC(=O)CN(C)C(=O)[C@H](CC2CC2)N(C)C(=O)CN(C)C(=O)CN(C)C1=O` [Compound 325] ([NMeL]I[Sar][Sar][NMeAla(cPr)][Sar][hPhe(3-Cl-4-CF3)]P[Ac5c][NMeV][NMeD]-Piperidide; lactam N-11), the concentration for half-maximal inhibition (IC50) amounted to 14 nM.
Next, `CC[C@H](C)[C@@H]1NC(=O)[C@H](CC(C)C)N(C)C(=O)C[C@@H](C)NC(=O)[C@H](CCC(C)C)N(C)C(=O)C2(CCCC2)NC(=O)[C@@H]2CCCN2C(=O)[C@H](CCc2ccc(C(F)(F)F)c(Cl)c2)NC(=O)CN(C)C(=O)[C@H](CC2CCCCC2)N(C)C(=O)CN(C)C(=O)CN(C)C1=O` [Compound 586] (cyclo([Ac5c][NMehLeu][d(β3hA)][NMeL]I[Sar][Sar][NMeCha][Sar][hPhe(3-Cl-4-CF3)]P)): 160 nM.
